Results reported in patent US4605744A, “Imidazole derivatives” (Hoffmann-La Roche Inc., priority 1985, dated 1986).
Counter-ions that a name gives are not always drawn.

Columns and labels:
Test in all cases: In vitro antibacterial activity (MIC)
Type in all cases: cell-based
K. pneumoniae A = conditions: Klebsiella pneumoniae, K. pneumoniae A; read-out: MIC
Protocol: (§1) Drug dilutions are prepared in Mueller-Hinton broth ranging from 128 to 0.008 μg/ml. The diluted agents are dispensed in 100 μl amounts into the wells of a 96-well tray and used immediately or frozen at -10° to -70° C. until needed. Using an automated inoculator, 1.5 μl of a 10^-2 dilution of an overnight culture is added to each well of the tray. The tops of the trays are then sealed using transparent tape and incubated overnight at 37° C. The trays are examined with the aid of a viewer. The lowest concentration at which no growth is observed is considered to be the minimum inhibitory concentration (MIC).

K. pneumoniae 5096 = conditions: Klebsiella pneumoniae; K. pneumoniae 5096; read-out: MIC
Protocol: as §1

S. marcescens S4 = conditions: Serratia marcescens, S4, S. marcescens S4; read-out: MIC
Protocol: as §1

E. coli 387-1 = conditions: Escherichia coli, 3871, E. coli 387-1; read-out: MIC
Protocol: as §1

S. schottmuelleri = conditions: read-out: MIC
Protocol: as §1

P. vulgaris 100 = conditions: Proteus vulgaris; P. vulgaris 100; read-out: MIC
Protocol: as §1

P. aeruginosa 503-820 = conditions: Pseudomonas aeruginosa, 503820; P. aeruginosa 503-820; read-out: MIC
Protocol: as §1

S. marcescens S1 = conditions: Serratia marcescens, S1, S. marcescens S1; read-out: MIC
Protocol: as §1

C. diversus CDC 1663-72 = conditions: Citrobacter koseri, CDC166372; C. diversus CDC 1663-72; read-out: MIC
Protocol: as §1

K. pneumoniae HE7 = conditions: Klebsiella pneumoniae; K. pneumoniae HE7; read-out: MIC
Protocol: as §1

E. aerogenes 83 = conditions: Klebsiella aerogenes, 83, E. aerogenes 83; read-out: MIC
Protocol: as §1

E. coli R-563 = conditions: Escherichia coli, R563, E. coli R-563; read-out: MIC
Protocol: as §1

P. mirabilis 503-1136 = conditions: Proteus mirabilis, 5031136, P. mirabilis 503-1136; read-out: MIC
Protocol: as §1

E. coli 5152 = conditions: Escherichia coli, 5152
Protocol: as §1

P. vulgaris ATCC 6380 = conditions: Proteus vulgaris, ATCC6380, P. vulgaris ATCC 6380; read-out: MIC
Protocol: as §1

P. vulgaris 101 = conditions: Proteus vulgaris, 101, P. vulgaris 101; read-out: MIC
Protocol: as §1

E. coli 4 = conditions: Escherichia coli, 4
Protocol: as §1

K. pneumoniae 503-964 = conditions: Klebsiella pneumoniae, 503964; K. pneumoniae 503-964; read-out: MIC
Protocol: as §1

P. mirabilis 2 = conditions: Proteus mirabilis, 2, P. mirabilis 2; read-out: MIC
Protocol: as §1

S. marcescens S147 = conditions: Serratia marcescens; S. marcescens S147; read-out: MIC
Protocol: as §1

P. mirabilis 620A = conditions: Proteus mirabilis, 620A, P. mirabilis 620A; read-out: MIC
Protocol: as §1

K. pneumoniae 503-994 = conditions: Klebsiella pneumoniae, 503994, K. pneumoniae 503-994; read-out: MIC
Protocol: as §1

S. marcescens 5805 = conditions: Serratia marcescens, 5805, S. marcescens 5805; read-out: MIC
Protocol: as §1

P. aeruginosa 8780 = conditions: Pseudomonas aeruginosa; P. aeruginosa 8780; read-out: MIC
Protocol: as §1

P. rettgeri ATCC 9250 = conditions: Providencia rettgeri, ATCC9250, P. rettgeri ATCC 9250; read-out: MIC
Protocol: as §1

S. typhi P58A = conditions: Salmonella enterica, TYPHI
Protocol: as §1

P. aeruginosa 5712 = conditions: Pseudomonas aeruginosa; P. aeruginosa 5712; read-out: MIC
Protocol: as §1

C. freundii CDC6 = conditions: Citrobacter freundii, CDC6, C. freundii CDC6; read-out: MIC
Protocol: as §1

E. cloacae 9295 = conditions: Enterobacter cloacae, 9295, E. cloacae 9295; read-out: MIC
Protocol: as §1

S. pyogenes 503-782 = conditions: Streptococcus pyogenes, 503782; S. pyogenes 503-782; read-out: MIC
Protocol: as §1

K. pneumoniae 4964 = conditions: Klebsiella pneumoniae, 4964
Protocol: as §1

P. aeruginosa 8710 = conditions: Pseudomonas aeruginosa; P. aeruginosa 8710; read-out: MIC
Protocol: as §1

S. marcescens SM = conditions: Serratia marcescens, read-out: MIC
Protocol: as §1

E. coli 48 = conditions: Escherichia coli, 48, E. coli 48; read-out: MIC
Protocol: as §1

K. pneumoniae 35 = conditions: Klebsiella pneumoniae; K. pneumoniae 35; read-out: MIC
Protocol: as §1

S. marcescens S714 = conditions: Serratia marcescens, S714, S. marcescens S714; read-out: MIC
Protocol: as §1

CC1(C)S[C@@H]2[C@H](N=CN3CCC(CCn4ccnc4)CC3)C(=O)N2[C@H]1C(=O)O [B, [2S-2alpha,5alpha,6beta)]-6-[[[4-[2-(1H-imidazol-1-yl)ethyl]-1-piperidinyl]methylene]amino]-3,3-dimethyl-7-oxo-4-thia-1-azabicyclo[3.2.0]heptane-2-carboxylic acid hydrate hydrochloride]
MIC (K. pneumoniae A): 0.062 µg/mL
MIC (K. pneumoniae 5096): 0.25 µg/mL
MIC (S. marcescens S4): 1 µg/mL
MIC (E. coli 387-1): 8 µg/mL
MIC (S. schottmuelleri): 0.25 µg/mL
MIC (P. vulgaris 100): 8 µg/mL
MIC (P. aeruginosa 503-820): > 128 µg/mL
MIC (S. marcescens S1): 0.5 µg/mL
MIC (C. diversus CDC 1663-72): 0.25 µg/mL
MIC (K. pneumoniae HE7): > 128 µg/mL
MIC (E. aerogenes 83): 0.5 µg/mL
MIC (E. coli R-563): 8 µg/mL
MIC (P. mirabilis 503-1136): 8 µg/mL
MIC (E. coli 5152): 16 µg/mL
MIC (P. vulgaris ATCC 6380): 0.5 µg/mL
MIC (P. vulgaris 101): 1 µg/mL
MIC (E. coli 4): 8 µg/mL
MIC (K. pneumoniae 503-964): 0.25 µg/mL
MIC (P. mirabilis 2): 1 µg/mL
MIC (S. marcescens S147): 0.5 µg/mL
MIC (P. mirabilis 620A): > 128 µg/mL
MIC (K. pneumoniae 503-994): 0.25 µg/mL
MIC (S. marcescens 5805): 1 µg/mL
MIC (P. aeruginosa 8780): > 128 µg/mL
MIC (P. rettgeri ATCC 9250): 0.5 µg/mL
MIC (S. typhi P58A): 0.062 µg/mL
MIC (P. aeruginosa 5712): > 128 µg/mL
MIC (C. freundii CDC6): 0.25 µg/mL
MIC (E. cloacae 9295): 0.5 µg/mL
MIC (S. pyogenes 503-782): 8 µg/mL
MIC (K. pneumoniae 4964): 0.5 µg/mL
MIC (P. aeruginosa 8710): > 128 µg/mL
MIC (S. marcescens SM): 0.25 µg/mL
MIC (E. coli 48): 0.25 µg/mL
MIC (K. pneumoniae 35): 1 µg/mL
MIC (S. marcescens S714): 1 µg/mL
